Where a name gives a salt, the structure may show the parent alone. Read-outs that look alike come from different tables or passages of the source.
Experiments:
[1] = system: resistant colon (HT-29) cell line; assay: Growth inhibition (MTT) in HT-29 colon cancer cells; assay type: cell-based, human
[2] = system: BRAF-mutant melanoma (518A2); assay: Growth inhibition (MTT) in 518A2 melanoma cells; assay type: cell-based, human
[3] = system: primary endothelial cells (HUVEC, human umbilical vein endothelial cells); assay: Growth inhibition in HUVEC; assay type: cell-based; details: for IC50: 72 h
[4] = system: HDAC active isolates from HeLa nuclear extract; details: 0.5 μg extract, 25 μM Fluor-de-Lys substrate, 60 min; read-out: HDAC inhibition IC50, HeLa nuclear extract (values from Mahal et al. 2015); cited from earlier work
recombinant human HDAC6 = target: T1, recombinant human HDAC6 (Homo sapiens, UniProt Q9UBN7); assay: Fluorescence-based HDAC activity assay, recombinant HDAC6
T1 sequence (Q9UBN7 1-1215): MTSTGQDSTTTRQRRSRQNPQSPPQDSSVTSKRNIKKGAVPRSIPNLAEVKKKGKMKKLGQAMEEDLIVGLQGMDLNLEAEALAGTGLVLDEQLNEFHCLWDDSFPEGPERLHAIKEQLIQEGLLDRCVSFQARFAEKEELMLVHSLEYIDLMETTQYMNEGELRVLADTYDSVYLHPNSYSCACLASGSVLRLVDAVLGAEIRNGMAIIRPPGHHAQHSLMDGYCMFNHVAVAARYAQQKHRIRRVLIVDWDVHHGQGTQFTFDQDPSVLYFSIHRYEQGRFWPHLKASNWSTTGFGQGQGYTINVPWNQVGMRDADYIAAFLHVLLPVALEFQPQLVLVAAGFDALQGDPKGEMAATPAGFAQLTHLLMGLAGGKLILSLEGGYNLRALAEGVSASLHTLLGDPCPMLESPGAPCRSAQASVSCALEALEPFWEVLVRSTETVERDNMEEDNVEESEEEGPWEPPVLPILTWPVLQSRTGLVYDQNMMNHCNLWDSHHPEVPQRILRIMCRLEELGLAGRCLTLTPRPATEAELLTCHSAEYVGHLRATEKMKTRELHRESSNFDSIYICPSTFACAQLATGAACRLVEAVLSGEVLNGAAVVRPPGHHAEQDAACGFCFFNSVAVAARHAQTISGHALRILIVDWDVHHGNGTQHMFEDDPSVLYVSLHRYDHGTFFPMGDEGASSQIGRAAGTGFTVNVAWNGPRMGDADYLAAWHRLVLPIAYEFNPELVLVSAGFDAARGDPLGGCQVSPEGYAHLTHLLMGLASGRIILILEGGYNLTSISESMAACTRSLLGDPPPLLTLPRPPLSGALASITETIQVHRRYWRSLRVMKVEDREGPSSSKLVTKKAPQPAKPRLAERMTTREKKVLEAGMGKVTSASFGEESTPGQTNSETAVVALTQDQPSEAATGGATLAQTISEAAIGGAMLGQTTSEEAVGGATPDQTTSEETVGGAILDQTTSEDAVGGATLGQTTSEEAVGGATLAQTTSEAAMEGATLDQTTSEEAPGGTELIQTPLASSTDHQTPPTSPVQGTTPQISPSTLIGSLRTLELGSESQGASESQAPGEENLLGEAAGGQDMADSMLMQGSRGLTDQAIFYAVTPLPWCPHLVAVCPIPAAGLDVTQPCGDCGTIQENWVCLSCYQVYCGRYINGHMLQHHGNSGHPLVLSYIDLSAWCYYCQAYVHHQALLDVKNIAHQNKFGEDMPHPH
Description: (§1) A fluorescence-based HDAC activity assay was used to assess the compound specificity for distinct HDAC classes. […] The Fluor-de-Lys substrate used allows to measure broad-spectrum HDAC activity from extracts or recombinant protein.

recombinant human HDAC1 = recombinant human HDAC1 (Homo sapiens, UniProt Q13547); assay: Fluorescence-based HDAC activity assay, recombinant HDAC1; details: for fold less efficacious than vorinostat on HDAC1: relative to vorinostat IC50
Chain of recombinant human HDAC1 (Q13547 whole entry): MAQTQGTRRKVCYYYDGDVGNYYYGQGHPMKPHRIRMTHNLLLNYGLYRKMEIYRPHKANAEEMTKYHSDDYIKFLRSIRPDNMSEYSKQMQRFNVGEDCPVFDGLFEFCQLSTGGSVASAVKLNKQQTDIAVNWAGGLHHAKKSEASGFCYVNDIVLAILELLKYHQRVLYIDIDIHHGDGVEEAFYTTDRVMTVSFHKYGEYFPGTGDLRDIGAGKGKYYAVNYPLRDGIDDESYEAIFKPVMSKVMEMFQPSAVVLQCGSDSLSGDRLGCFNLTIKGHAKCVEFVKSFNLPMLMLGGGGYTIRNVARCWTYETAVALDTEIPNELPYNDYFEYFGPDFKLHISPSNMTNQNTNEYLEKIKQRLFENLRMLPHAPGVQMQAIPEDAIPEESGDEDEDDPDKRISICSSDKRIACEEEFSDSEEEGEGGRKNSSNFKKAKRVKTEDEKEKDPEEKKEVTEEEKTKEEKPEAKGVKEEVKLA
Description: (§2) Briefly, cell pellets from mass cultures were resuspended and incubated in cell extraction buffer (20 mM HEPES, 10 mM KCl, 0.1 mM EDTA, 0.1 mM EGTA, 1.5 mM MgCl2, 0.5 mM DTT) containing 0.1% Triton X-100 to lyse cell membranes and leave intact nuclei. After centrifugation (3,000 g, 2 min), the supernatant containing cytosolic proteins was aspirated from the nuclei pellet and the protein concentration of the cytosolic fraction was determined by a standard Bradford assay (Pierce/Thermo Scientific).
as §1

518A2 melanoma cells = assay: Western blot of 518A2 cell lysates: caspase-9 cleavage and histone H2B acetylation; assay type: cell-based, human; details: 518A2 cells; for acetylation of histone proteins (H2B) and alpha-tubulin after drug treatment: Western blot
Description: Western blot analysis of 518A2 cell lysates after drug treatment (3-24 h).

[5] = system: resistant breast (MCF-7/Topo) cell line; assay: Growth inhibition in MCF-7/Topo breast cancer cells; assay type: cell-based
[6] = system: hybrid endothelial cells (Ea.hy926); assay: Growth inhibition in Ea.hy926 cells; assay type: cell-based; details: for IC50: Homo sapiens, EA.hy 926, 72 h
[7] = system: non-malignant fibroblasts (CF, chicken fibroblasts); assay: Growth inhibition in chicken fibroblasts; assay type: cell-based; details: Gallus gallus, Fibroblast, 72 h
[8] = system: resistant cervix carcinoma (KB-V1/Vbl) cell line; assay: Growth inhibition in KB-V1/Vbl cervix carcinoma cells; assay type: cell-based; details: Homo sapiens, 72 h, read-out: IC50 KB-V1/Vbl
[9] = system: HDAC active isolates from HeLa cytosolic extract; assay: Fluorescence-based HDAC activity assay, HeLa cytosolic extract; details: for IC50: read-out: HDAC inhibition IC50, HeLa cytosolic extract, 1 μg extract, 25 μM Fluor-de-Lys substrate, 60 min
Description: as §2, §1

[10] = system: acetylated lysine residues in alpha-tubulin, 518A2 melanoma cells; assay: Immunoblot for acetylated alpha-tubulin in 518A2 cells; assay type: cell-based, human; details: […] or 5 μM, 24 h, versus SAHA 5 μM
Description: Cell lysates were subjected to gel electrophoresis and immunoblotting for acetylated lysine residues in alpha-tubulin (55 kDa).

[11] = system: HDAC active isolates from HeLa nuclear extract; assay: Fluorescence-based HDAC activity assay, HeLa nuclear extract; details: read-out: HDAC inhibition IC50, HeLa nuclear extract; 0.5 μg extract, 25 μM Fluor-de-Lys substrate, 60 min
Description: as §2, §1

Tolerance in Balb/c mice = assay type: in vivo; details: two Balb/c mice
Description: FIG. 8: Tolerance of Et-Animacroxam (compound 3) in two Balb/c mice (x-axis: day 1-7; y-axis: weight in gram).

[12] = system: 1411HP xenograft (Cisplatin-resistant testicular cancer); assay: 1411HP xenograft model; assay type: in vivo, mouse; details: 150 mg/kg i.p.
Description: FIG. 9: Activity of Et-Animacroxam (compound 3) in the 1411HP xenograft model (left: before treatment; right: 24 h after treatment with 150 mg/kg i.p. of Et-Animacroxam).

[13] = system: EGF-stimulated MCF-7/Topo cells; assay: Matrigel-Transwell-Migration Assay; assay type: cell-based; details: EGF 200 ng/mL, 48 h
Description: FIG. 6: Influence of imidazole-based HDAC inhibitors Et-Animacroxam (compound 3) and Bimacroxam (compound 4) on resistance factors in tumor cell lines. A: Western blot analysis of Akt-phosphorylation (phospho-Akt) in 518A2 and MCF-7/Topo cell lysates (10 μg protein each) after 6 h of incubation. […] The amount of invasive cells was determined after calcein treatment via fluorescence measurement and DMSO-treated controls without EGF were set to 100%.

| Structure (SMILES) | IC50 ([1]; 72 h) [nM] | IC50 ([2]; 72 h) [nM] | IC50 (recombinant human HDAC6) [nM] | IC50 (recombinant human HDAC1) [nM] | fold less efficacious than vorinostat on HDAC1 (recombinant human HDAC1) | IC50 ([1]; Homo sapiens, HT-29, 72 h) [nM] | acetylation of histone proteins (H2B) and alpha-tubulin after drug treatment (518A2 melanoma cells) | IC50 [6] [nM] | IC50 ([3]; Homo sapiens, HUVEC) [nM] | IC50 [7] [nM] | IC50 [8] [nM] | IC50 [9] [nM] | IC50 ([2]; Homo sapiens, 518A2, 72 h) [nM] | acetylated alpha-tubulin [10] | other results |
| --- | --- | --- | --- | --- | --- | --- | --- | --- | --- | --- | --- | --- | --- | --- | --- |
| Cn1cnc(-c2ccc(F)cc2)c1-c1ccc(C=CC(=O)NO)cc1 [Compound F-3, 1-Methyl-4-(4-fluorophenyl)-5-(4′-hydroxyaminocarbonylethenyl-phenyl)-imidazole×HCl] | 1450 ± 60 | 1940 ± 40 | – | – | – | – | – | – | – | – | – | – | – | – | – |
| Cn1cnc(-c2ccccc2)c1-c1ccc(/C=C/C(=O)NO)cc1 [Compound 4, 1-Methyl-4-phenyl-5-(4′-hydroxyaminocarbonylethenyl-phenyl)-imidazole×HCl] | – | – | 107 ± 23 | 28 ± 11 | ca. twofold | 1330 ± 70 | vastly acetylated | 160 ± 30 | 550 ± 290 | > 50000 | 5040 ± 1820 | 132 ± 14 | 2760 ± 620 | much higher extent compared with cells treated with SAHA | IC50 [4]: 234 nM; IC50 ([5]; Homo sapiens, MCF7/Topo, 72 h; read-out: IC50 MCF-7/Topo): 15300 ± 1400 nM; fold stronger in the Ea.hy926 cell line compared with 3 and SAHA ([6]; Ea.hy926): 10 fold; fold stronger in primary endothelial cells compared with 3 and SAHA ([3]; HUVEC): 12 fold |
| Cn1cnc(-c2ccccc2)c1-c1ccc(/C=C/C(=O)NO)cc1 (as salt: HCl) [Compound 4, 1-Methyl-4-phenyl-5-(4′-hydroxyaminocarbonylethenyl-phenyl)-imidazole×HCl] | – | – | – | – | – | – | – | – | – | – | – | – | – | – | melting point: 189 to 190 °C |
| CCn1cnc(-c2ccc(OC)cc2)c1-c1ccc(/C=C/C(=O)NO)cc1 [Compound 3, 1-Ethyl-4-(4-methoxyphenyl)-5-(4′-hydroxyaminocarbonylethenyl-phenyl)-imidazole×HCl] | – | – | 66 | 187 ± 37 | ca. tenfold | 450 ± 30 | vastly acetylated | 990 ± 130 | 1260 ± 450 | > 50000 | 2910 ± 980 | 36 ± 14 | 950 ± 190 | much higher extent compared with cells treated with SAHA | IC50 [11]: 504 ± 24 nM; apoptosis induction (caspase-9-cleavage) (518A2 melanoma cells; 3-24 h): leads to apoptosis induction (caspase-9-cleavage); IC50 ([5]; Homo sapiens, MCF7/Topo, 72 h, read-out: IC50 MCF-7/Topo): 5600 ± 330 nM; signs of toxicity (Tolerance in Balb/c mice; 2×20 mg/kg i.p. on two consecutive days): no signs of toxicity; weight of treated mice (Tolerance in Balb/c mice; 2×20 mg/kg i.p., day 1-7): roughly remained the same; diameter of bigger vessels of the tumor body ([12]; after 24 h): reduced significantly; visible side effects ([12]; mouse): did not cause any visible side effects; times more active than vorinostat in the cytosolic fraction ([9]; HeLa cytosolic extract): ca. four; times more HDAC inhibiting in the cytosolic than in the nuclear fraction ([9]; HeLa cytosolic vs nuclear extract): ca. 14 times; invasiveness of MCF-7/Topo cells [13]: significantly reduced invasiveness |

Second part, led by results:

| IC50 ([1]; 72 h) [nM] | IC50 ([2]; 72 h) [nM] | Structure (SMILES) | IC50 (recombinant human HDAC6) [nM] | IC50 (recombinant human HDAC1) [nM] | fold less efficacious than vorinostat on HDAC1 (recombinant human HDAC1) | IC50 ([1]; Homo sapiens, HT-29, 72 h) [nM] | acetylation of histone proteins (H2B) and alpha-tubulin after drug treatment (518A2 melanoma cells) | IC50 [6] [nM] | IC50 ([3]; Homo sapiens, HUVEC) [nM] | IC50 [7] [nM] | IC50 [8] [nM] | IC50 [9] [nM] | IC50 ([2]; Homo sapiens, 518A2, 72 h) [nM] | acetylated alpha-tubulin [10] | other results |
| --- | --- | --- | --- | --- | --- | --- | --- | --- | --- | --- | --- | --- | --- | --- | --- |
| 710 ± 60 | 1450 ± 70 | COc1ccc(-c2ncn(C)c2-c2ccc(C=CC(=O)NO)cc2)cc1 [Compound Nor-3, 1-Methyl-4-(4-methoxyphenyl)-5-(4′-hydroxyaminocarbonylethenyl-phenyl)-imidazole×HCl] | – | – | – | – | – | – | – | – | – | – | – | – | IC50 [3]: 830 ± 260 nM |
| 2800 ± 70 | 2230 ± 60 | Cn1cnc(-c2ccccc2)c1-c1cccc(C=CC(=O)NO)c1 [Compound iso-4, 1-Methyl-4-phenyl-5-(3′-hydroxyaminocarbonylethenyl-phenyl)-imidazole×HCl] | – | – | – | – | – | – | – | – | – | – | – | – | – |
